Measured values as given in PubChem BioAssay AID1845217 (Molecular Pharmacology Branch, DTP, NCI, 2023).

Tested on: VA-ES-BJ tumor spheroid viability
Assay: Anticancer human tumor VA-ES-BJ cell line growth inhibition;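 further: spheroids exposed to compounds for seven days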;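 on viability, T/C: percent of DMSO vehicle control viability so 100% = untreated growth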
Details: spheroids with HUVEC and MSC; for IC50: curve of first compound; for viability, T/C: stronger effect = lower value
Outline: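 Single agents and combinations were tested on spheroids built from tumor cells plus HUVEC and hMSC, at half-log dilutions starting at or near clinical Cmax, else 10 microM; final DMSO 0.25% (v/v).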

[1] = second compound 0.003 µM, first compound 0.0316 µM
[2] = second compound 0.003 µM, first compound 0.1 µM
[3] = second compound 0.003 µM, first compound 0.316 µM
[4] = second compound 0.003 µM, first compound 1 µM
[5] = second compound 0.003 µM, first compound 3.16 µM
[6] = second compound 0.003 µM, first compound 10 µM
[7] = second compound 0.00949 µM, first compound 0.0316 µM
[8] = second compound 0.00949 µM, first compound 0.1 µM
[9] = second compound 0.00949 µM, first compound 0.316 µM
[10] = second compound 0.00949 µM, first compound 1 µM
[11] = second compound 0.00949 µM, first compound 3.16 µM
[12] = second compound 0.00949 µM, first compound 10 µM
[13] = second compound 0.03 µM, first compound 0.0316 µM
[14] = second compound 0.03 µM, first compound 0.1 µM
[15] = second compound 0.03 µM, first compound 0.316 µM
[16] = second compound 0.03 µM, first compound 1 µM
[17] = second compound 0.03 µM, first compound 3.16 µM
[18] = second compound 0.03 µM, first compound 10 µM
[19] = second compound 0.0949 µM, first compound 0.0316 µM
[20] = second compound 0.0949 µM, first compound 0.1 µM
[21] = second compound 0.0949 µM, first compound 0.316 µM
[22] = second compound 0.0949 µM, first compound 1 µM
[23] = second compound 0.0949 µM, first compound 3.16 µM
[24] = second compound 0.0949 µM, first compound 10 µM
[25] = second compound 0.3 µM, first compound 0.0316 µM
[26] = second compound 0.3 µM, first compound 0.1 µM
[27] = second compound 0.3 µM, first compound 0.316 µM
[28] = second compound 0.3 µM, first compound 1 µM
[29] = second compound 0.3 µM, first compound 3.16 µM
[30] = second compound 0.3 µM, first compound 10 µM

Row | SMILES | IC50 (second compound 0.003 µM) [nM] | IC50 (second compound 0.00949 µM) [nM] | IC50 (second compound 0.03 µM) [nM] | IC50 (second compound 0.0949 µM) [nM] | IC50 (second compound 0.3 µM) [nM] | viability, T/C [1] [%] | viability, T/C [2] [%] | viability, T/C [3] [%] | viability, T/C [4] [%] | viability, T/C [5] [%] | viability, T/C [6] [%] | viability, T/C [7] [%] | viability, T/C [8] [%] | viability, T/C [9] [%] | viability, T/C [10] [%] | viability, T/C [11] [%] | viability, T/C [12] [%] | viability, T/C [13] [%] | viability, T/C [14] [%] | viability, T/C [15] [%] | further results
1 | CC(C)n1c(=O)n(C)c2cnc3cc(F)c(-c4ccc(OCCCN5CCCCC5)nc4)cc3c21 + CC[C@@]1(O)C(=O)OCc2c1cc1n(c2=O)Cc2cc3c(CN(C)C)c(O)ccc3nc2-1 | 3970 | < 31.6 | < 31.6 | < 31.6 | < 31.6 | 82.7 | 76 | 80 | 77.3 | 54.7 | 30.8 | 50.8 | 46.3 | 45.3 | 44.5 | 37.3 | 20.5 | 30.3 | 27.4 | 31.4 | viability, T/C [16]: 26.9%; viability, T/C [17]: 27.5%; viability, T/C [18]: 11.9%; viability, T/C [19]: 6.85%; viability, T/C [20]: 6.85%; viability, T/C [21]: 7.33%; viability, T/C [22]: 7.9%; viability, T/C [23]: 8.2%; viability, T/C [24]: 7.69%; viability, T/C [25]: 4.4%; viability, T/C [26]: 4.06%; viability, T/C [27]: 3.67%; viability, T/C [28]: 3.49%; viability, T/C [29]: 3.07%; viability, T/C [30]: 2.74%
2 | CC1COCCN1c1cc(-c2ccnn2C)c2ccnc(-c3ccn[nH]3)c2n1 (stereo not given) + CC[C@@]1(O)C(=O)OCc2c1cc1n(c2=O)Cc2cc3c(CN(C)C)c(O)ccc3nc2-1 | 56.3 | < 31.6 | < 31.6 | < 31.6 | < 31.6 | 63.9 | 35.5 | 22.4 | 12.1 | 6.47 | 6.01 | 40.4 | 27.1 | 21.2 | 8.86 | 5.91 | 5.08 | 22.6 | 16.9 | 12.8 | viability, T/C [16]: 6.37%; viability, T/C [17]: 4.95%; viability, T/C [18]: 4.49%; viability, T/C [19]: 8.54%; viability, T/C [20]: 7.09%; viability, T/C [21]: 6.46%; viability, T/C [22]: 5.74%; viability, T/C [23]: 4.46%; viability, T/C [24]: 4.49%; viability, T/C [25]: 6.2%; viability, T/C [26]: 5.86%; viability, T/C [27]: 4.85%; viability, T/C [28]: 4.65%; viability, T/C [29]: 4.8%; viability, T/C [30]: 4.19%
3 | COc1cc(C)[nH]c(=O)c1CN1CCc2c(Cl)cc(C(OC)C3COC3)c(Cl)c2C1=O (stereo not given) + CC[C@@]1(O)C(=O)OCc2c1cc1n(c2=O)Cc2cc3c(CN(C)C)c(O)ccc3nc2-1 | > 10000 | 5100 | < 31.6 | < 31.6 | < 31.6 | 99.6 | 88.8 | 70.9 | 64.2 | 54.9 | 52.5 | 93.2 | 88.8 | 74.5 | 65.5 | 53 | 45.4 | 50.1 | 47.5 | 47.3 | viability, T/C [16]: 46.9%; viability, T/C [17]: 42.3%; viability, T/C [18]: 38.4%; viability, T/C [19]: 8.85%; viability, T/C [20]: 9.47%; viability, T/C [21]: 8.43%; viability, T/C [22]: 8.57%; viability, T/C [23]: 8.44%; viability, T/C [24]: 9.48%; viability, T/C [25]: 6.48%; viability, T/C [26]: 6.48%; viability, T/C [27]: 6.57%; viability, T/C [28]: 6.59%; viability, T/C [29]: 5.96%; viability, T/C [30]: 6.06%
4 | COc1ccc([C@@H](O)c2cc(-c3ncnc4cc(N5CCOCC5)ccc34)c(F)cc2Cl)nn1 + CC[C@@]1(O)C(=O)OCc2c1cc1n(c2=O)Cc2cc3c(CN(C)C)c(O)ccc3nc2-1 | 949 | 612 | 78.7 | < 31.6 | < 31.6 | 94.8 | 93.4 | 71 | 52.6 | 19.9 | 9.59 | 89.4 | 77.2 | 65.4 | 40.6 | 15.8 | 8.03 | 51.3 | 50.9 | 40.5 | viability, T/C [16]: 26.2%; viability, T/C [17]: 13.8%; viability, T/C [18]: 7.2%; viability, T/C [19]: 8.47%; viability, T/C [20]: 9.28%; viability, T/C [21]: 9.08%; viability, T/C [22]: 8.66%; viability, T/C [23]: 7.19%; viability, T/C [24]: 6.29%; viability, T/C [25]: 6.47%; viability, T/C [26]: 6.18%; viability, T/C [27]: 7.16%; viability, T/C [28]: 7.21%; viability, T/C [29]: 6.83%; viability, T/C [30]: 6.76%
5 | [2H]c1nc(C)nc([2H])c1-c1cc(NC[C@@H](C)c2cccc3c(C(=O)NC)ccnc23)ncn1 + CC[C@@]1(O)C(=O)OCc2c1cc1n(c2=O)Cc2cc3c(CN(C)C)c(O)ccc3nc2-1 | > 10000 | > 10000 | 203 | < 31.6 | < 31.6 | 101 | 95.9 | 99.5 | 100 | 105 | 100 | 90.1 | 90.6 | 90.6 | 92.4 | 87.3 | 81.6 | 53.3 | 48.2 | 49.9 | viability, T/C [16]: 50.2%; viability, T/C [17]: 46.4%; viability, T/C [18]: 46%; viability, T/C [19]: 9.76%; viability, T/C [20]: 8.96%; viability, T/C [21]: 7.7%; viability, T/C [22]: 8.02%; viability, T/C [23]: 8.96%; viability, T/C [24]: 8.01%; viability, T/C [25]: 6.31%; viability, T/C [26]: 6.82%; viability, T/C [27]: 5.89%; viability, T/C [28]: 5.88%; viability, T/C [29]: 5.82%; viability, T/C [30]: 5.63%
